Measured values published in ChEMBL document CHEMBL3091402, “Identification of clinical candidates from the benzazepine class of histamine H3 receptor antagonists” (Bioorg Med Chem Lett, 2013).
One block for each compound: values may come before it. The source made the active and inactive calls. The rule behind the calls is not given here.

Experiments:
Histamine H3 receptor [1] = target: T1, Histamine H3 receptor (Rattus norvegicus, UniProt Q9QYN8); experiment: Displacement of [3H]-R-alpha-ethylhistamine from histamine H3 receptor in rat cerebral cortical tissue membranes after 45 mins by liquid scintillation spectrometry
T1 sequence (Q9QYN8 whole entry): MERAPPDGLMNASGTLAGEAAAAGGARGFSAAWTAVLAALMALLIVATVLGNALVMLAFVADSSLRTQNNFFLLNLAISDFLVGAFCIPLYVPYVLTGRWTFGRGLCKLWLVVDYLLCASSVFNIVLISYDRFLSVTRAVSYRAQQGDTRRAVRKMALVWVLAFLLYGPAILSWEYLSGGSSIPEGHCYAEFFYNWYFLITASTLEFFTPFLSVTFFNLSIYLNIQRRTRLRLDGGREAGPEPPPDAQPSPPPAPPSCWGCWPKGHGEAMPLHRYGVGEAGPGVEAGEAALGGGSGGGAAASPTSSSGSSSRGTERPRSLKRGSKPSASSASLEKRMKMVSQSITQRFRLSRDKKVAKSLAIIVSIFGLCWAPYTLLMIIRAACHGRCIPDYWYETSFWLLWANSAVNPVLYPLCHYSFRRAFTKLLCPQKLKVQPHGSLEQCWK

Rattus norvegicus [2] = experiment: Ex vivo binding affinity to histamine H3 receptor in rat cerebral cortex using [3H]-R-alpha-ethylhistamine at 0.3 mg/kg, po after 3 hrs by HPLC analysis; assay type: functional
Liver microsome [3] = experiment: Intrinsic clearance in rat liver microsomes; assay type: ADME
Histamine H3 receptor [4] = target: T2, Histamine H3 receptor (Homo sapiens, UniProt Q9Y5N1); experiment: Antagonist activity at human histamine H3 receptor expressed in CHOK1 cells assessed as inhibition of GTPgammaS binding; assay type: functional, cell-based, CHO-K1
T2 sequence (Q9Y5N1 whole entry): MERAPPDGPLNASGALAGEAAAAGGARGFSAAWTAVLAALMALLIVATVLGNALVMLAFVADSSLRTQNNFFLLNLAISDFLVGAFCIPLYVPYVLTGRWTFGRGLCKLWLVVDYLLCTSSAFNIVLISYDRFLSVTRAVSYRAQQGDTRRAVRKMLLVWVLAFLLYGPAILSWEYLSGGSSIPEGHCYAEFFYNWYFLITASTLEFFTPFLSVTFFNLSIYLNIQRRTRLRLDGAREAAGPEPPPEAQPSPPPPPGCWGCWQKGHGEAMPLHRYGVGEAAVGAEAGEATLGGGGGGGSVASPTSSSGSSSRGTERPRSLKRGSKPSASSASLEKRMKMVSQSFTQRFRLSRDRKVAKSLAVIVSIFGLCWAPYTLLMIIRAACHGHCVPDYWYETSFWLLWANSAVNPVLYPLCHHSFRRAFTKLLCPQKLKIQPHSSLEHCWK

Rattus norvegicus [5] = experiment: Ex vivo binding affinity to histamine H3 receptor in rat cerebral cortex using [3H]-R-alpha-ethylhistamine at 3 mg/kg, po after 3 hrs by HPLC analysis; assay type: functional
Rattus norvegicus [6] = experiment: Reversal of RAMH-induced dipsogenia in po dosed Lister Hooded rat treated 2 hrs before RAMH challenge measured after 1 hr; assay type: functional
Blood = experiment: Drug level in rat blood at 3 mg/kg, po; assay type: ADME, organism-based; design: dose 3 mg/kg, route oral; conditions: in vivo, read-out: Drug uptake
Rattus norvegicus [7] = experiment: Ex vivo binding affinity to histamine H3 receptor in po dosed rat cerebral cortex using [3H]-R-alpha-ethylhistamine after 2 hrs by HPLC analysis; assay type: functional
[8] = Ratio of drug level in brain to blood in rat at 3 mg/kg, po; assay type: ADME, organism-based; design: dose 3 mg/kg, route oral
Liver microsome [9] = experiment: Intrinsic clearance in human liver microsomes; assay type: ADME
Histamine H3 receptor [10] = target: T1, Histamine H3 receptor; experiment: Displacement of [3H]-R-alpha-ethylhistamine from rat histamine H3 receptor expressed in HEK293 cells after 45 mins by liquid scintillation spectrometry; assay type: cell-based
Histamine H4 receptor = Histamine H4 receptor (Homo sapiens, UniProt Q9H3N8); experiment: Binding affinity to human histamine H4 receptor
Histamine H2 receptor = Histamine H2 receptor (Homo sapiens, UniProt P25021); experiment: Binding affinity to human histamine H2 receptor
Histamine H2 receptor, sequence (P25021 whole entry): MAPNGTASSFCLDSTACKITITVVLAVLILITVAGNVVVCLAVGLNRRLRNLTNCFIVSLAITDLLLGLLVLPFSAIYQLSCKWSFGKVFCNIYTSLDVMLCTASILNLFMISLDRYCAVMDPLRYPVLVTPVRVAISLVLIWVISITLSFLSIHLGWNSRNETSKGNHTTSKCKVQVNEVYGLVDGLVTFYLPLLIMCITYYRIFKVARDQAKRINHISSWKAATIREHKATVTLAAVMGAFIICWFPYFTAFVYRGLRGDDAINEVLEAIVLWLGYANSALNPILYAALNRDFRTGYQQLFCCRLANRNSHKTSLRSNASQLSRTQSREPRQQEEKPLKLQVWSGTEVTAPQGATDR

[11] = Time dependent inhibition of CYP450 (unknown origin); assay type: ADME, Homo sapiens
hERG (KCNH2) = hERG (KCNH2) (Homo sapiens, UniProt Q12809); experiment: Inhibition of human ERG at 10 uM by patch clamp experiment
hERG (KCNH2), sequence (Q12809 whole entry): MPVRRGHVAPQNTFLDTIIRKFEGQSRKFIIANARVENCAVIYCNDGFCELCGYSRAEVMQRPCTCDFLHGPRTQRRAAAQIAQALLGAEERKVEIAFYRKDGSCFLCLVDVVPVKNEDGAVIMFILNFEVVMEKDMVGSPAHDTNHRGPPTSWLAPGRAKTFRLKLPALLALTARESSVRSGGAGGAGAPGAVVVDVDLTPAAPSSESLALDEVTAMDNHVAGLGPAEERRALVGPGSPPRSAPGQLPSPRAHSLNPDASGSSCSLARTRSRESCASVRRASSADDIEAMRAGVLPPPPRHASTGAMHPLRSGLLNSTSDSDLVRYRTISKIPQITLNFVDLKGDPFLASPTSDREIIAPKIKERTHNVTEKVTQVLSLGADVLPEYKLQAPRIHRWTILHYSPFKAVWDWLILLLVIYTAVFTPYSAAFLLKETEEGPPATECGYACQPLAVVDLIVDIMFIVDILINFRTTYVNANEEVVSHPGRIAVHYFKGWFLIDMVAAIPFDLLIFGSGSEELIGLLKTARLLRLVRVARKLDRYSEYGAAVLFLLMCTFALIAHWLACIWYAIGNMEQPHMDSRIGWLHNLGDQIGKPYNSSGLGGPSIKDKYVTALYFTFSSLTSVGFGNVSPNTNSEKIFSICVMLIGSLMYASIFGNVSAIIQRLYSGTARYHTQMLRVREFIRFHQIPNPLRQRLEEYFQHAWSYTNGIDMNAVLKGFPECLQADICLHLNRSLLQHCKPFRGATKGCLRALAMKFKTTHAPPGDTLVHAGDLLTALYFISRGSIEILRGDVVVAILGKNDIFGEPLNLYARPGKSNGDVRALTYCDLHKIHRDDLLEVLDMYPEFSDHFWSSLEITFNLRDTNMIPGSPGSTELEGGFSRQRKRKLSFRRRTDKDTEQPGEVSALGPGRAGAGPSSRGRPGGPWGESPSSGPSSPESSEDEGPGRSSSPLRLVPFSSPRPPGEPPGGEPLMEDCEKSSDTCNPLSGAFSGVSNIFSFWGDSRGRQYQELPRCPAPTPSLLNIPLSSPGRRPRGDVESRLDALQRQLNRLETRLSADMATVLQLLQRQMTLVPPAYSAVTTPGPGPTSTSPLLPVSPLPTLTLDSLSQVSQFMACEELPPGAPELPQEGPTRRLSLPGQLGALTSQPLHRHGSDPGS

Histamine H1 receptor = Histamine H1 receptor (Homo sapiens, UniProt P35367); experiment: Binding affinity to human histamine H1 receptor
Histamine H1 receptor, sequence (P35367 whole entry): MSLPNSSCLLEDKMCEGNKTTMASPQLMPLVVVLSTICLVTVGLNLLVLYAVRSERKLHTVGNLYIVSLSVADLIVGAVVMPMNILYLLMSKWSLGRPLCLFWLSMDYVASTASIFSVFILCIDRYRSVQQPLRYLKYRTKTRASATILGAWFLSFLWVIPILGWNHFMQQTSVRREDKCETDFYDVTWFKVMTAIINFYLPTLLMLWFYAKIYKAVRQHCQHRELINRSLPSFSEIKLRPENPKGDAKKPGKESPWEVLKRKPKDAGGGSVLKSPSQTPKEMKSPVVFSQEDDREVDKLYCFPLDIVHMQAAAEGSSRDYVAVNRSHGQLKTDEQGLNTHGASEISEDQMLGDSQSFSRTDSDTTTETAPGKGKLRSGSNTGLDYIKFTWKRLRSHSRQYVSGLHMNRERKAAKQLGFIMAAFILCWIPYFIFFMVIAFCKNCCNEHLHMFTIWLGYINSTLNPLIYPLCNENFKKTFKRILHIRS

Rattus norvegicus [12] = experiment: Cognitive enhancing effect against scopolamine-induced memory deficit in Wistar rat assessed as passive avoidance response at 3 mg/kg, po after 24 hrs; assay type: functional, organism-based; design: dose 3 mg/kg
[13] = Oral bioavailability in cynomolgus monkey; assay type: ADME, organism-based, Macaca fascicularis; conditions: in vivo
[14] = Total blood clearance in iv dosed cynomolgus monkey; assay type: ADME, organism-based, Macaca fascicularis; conditions: whole blood
[15] = Cmax in iv dosed cynomolgus monkey; assay type: ADME, organism-based, Macaca fascicularis; design: route intravenous; conditions: in vivo
[16] = Total blood clearance in iv dosed Beagle dog; assay type: ADME, organism-based, Canis lupus familiaris; conditions: whole blood
[17] = Terminal half life in iv dosed cynomolgus monkey; assay type: ADME, organism-based, Macaca fascicularis; conditions: in vivo, read-out: beta t1/2 (converted)
[18] = Cmax in po dosed Beagle dog; assay type: ADME, organism-based, Canis lupus familiaris; design: route oral; conditions: in vivo
[19] = Volume of distribution at steady-state in iv dosed Beagle dog; assay type: ADME, organism-based, Canis lupus familiaris; conditions: in vivo, read-out: Vdss
[20] = Volume of distribution at steady-state in iv dosed cynomolgus monkey; assay type: ADME, organism-based, Macaca fascicularis; conditions: in vivo, read-out: Vdss
[21] = Terminal half life in po dosed Sprague-Dawley rat; assay type: ADME, organism-based; conditions: in vivo, read-out: beta t1/2 (converted)
[22] = Ratio of drug level in brain to blood in iv dosed Sprague-Dawley rat; assay type: ADME, organism-based
[23] = Ratio of drug level in brain to blood in human; assay type: ADME, tissue-based
[24] = Total blood clearance in iv dosed Sprague-Dawley rat; assay type: ADME, organism-based; conditions: whole blood
[25] = Tmax in po dosed cynomolgus monkey; assay type: ADME, organism-based, Macaca fascicularis; conditions: in vivo
[26] = Tmax in po dosed Sprague-Dawley rat; assay type: ADME, organism-based; conditions: in vivo
[27] = Cmax in po dosed Sprague-Dawley rat; assay type: ADME, organism-based; design: route oral; conditions: in vivo
[28] = Volume of distribution at steady-state in iv dosed Sprague-Dawley rat; assay type: ADME, organism-based; conditions: in vivo, read-out: Vdss
Rattus norvegicus [29] = experiment: Cognitive enhancing effect against scopolamine-induced memory deficit in po dosed Wistar rat assessed as passive avoidance response after 24 hrs; assay type: functional, organism-based
[30] = Terminal half life in po dosed cynomolgus monkey; assay type: ADME, organism-based, Macaca fascicularis; conditions: in vivo, read-out: beta t1/2 (converted)
[31] = Terminal half life in iv dosed Sprague-Dawley rat; assay type: ADME, organism-based; conditions: in vivo, read-out: beta t1/2 (converted)
Rattus norvegicus [32] = experiment: Cognitive enhancing effect in Lister Hooded rat assessed as increase of time spent exploring novel versus familiar objects in T2 at 0.3 to 1 mg/kg, po bid; assay type: functional, organism-based
[33] = Oral bioavailability in Beagle dog; assay type: ADME, organism-based, Canis lupus familiaris; conditions: in vivo
[34] = Tmax in po dosed Beagle dog; assay type: ADME, organism-based, Canis lupus familiaris; conditions: in vivo
[35] = Oral bioavailability in Sprague-Dawley rat; assay type: ADME, organism-based; conditions: in vivo
[36] = Terminal half life in po dosed Beagle dog; assay type: ADME, organism-based, Canis lupus familiaris; conditions: in vivo, read-out: beta t1/2 (converted)
[37] = Terminal half life in iv dosed Beagle dog; assay type: ADME, organism-based, Canis lupus familiaris; conditions: in vivo, read-out: beta t1/2 (converted)
[38] = Cmax in iv dosed Beagle dog; assay type: ADME, organism-based, Canis lupus familiaris; design: route intravenous; conditions: in vivo
Rattus norvegicus [39] = species on record: Rattus norvegicus; experiment: Ex vivo receptor occupancy of histamine H3 receptor in rat brain; assay type: functional, organism-based
Histamine H3 receptor [40] = target: T2, Histamine H3 receptor; experiment: Displacement of [3H]-R-alpha-ethylhistamine from human histamine H3 receptor expressed in HEK293 cells after 45 mins by liquid scintillation spectrometry
[41] = Aqueous solubility of the compound; assay type: physicochemical
[42] = Cmax in po dosed cynomolgus monkey; assay type: ADME, organism-based, Macaca fascicularis; design: route oral; conditions: in vivo
[43] = Cmax in iv dosed Sprague-Dawley rat; assay type: ADME, organism-based; design: route intravenous; conditions: in vivo
Histamine H3 receptor [44] = target: T2, Histamine H3 receptor; experiment: Displacement of [3H]-R-alpha-ethylhistamine from histamine H3 receptor in human cerebral cortical tissue membranes after 45 mins by liquid scintillation spectrometry

Ki (Histamine H3 receptor [1]): 0.631 nM | CLH (Liver microsome [3]): < 3 mL/min/g | Ki (Histamine H3 receptor [4]): 0.126 nM
SMILES: CC(C)NC(=O)c1ccc(Oc2ccc3c(c2)CCN(C2CCC2)CC3)nc1
Activity (Rattus norvegicus [2]): 19%

Ki (Histamine H3 receptor [1]): 3.98 nM | Ki (Histamine H3 receptor [4]): 0.2 nM
SMILES: Cc1nc(Oc2ccc3c(c2)CCN(C2CCC2)CC3)ccc1C#N
Activity (Rattus norvegicus [5]): 18%

Ki (Histamine H3 receptor [1]): 0.2 nM | Ki (Histamine H3 receptor [4]): 0.0794 nM
SMILES: O=C1CCN1c1ccc(Oc2ccc3c(c2)CCN(C2CCC2)CC3)nc1
Activity (Rattus norvegicus [2]): 21%

Ki (Histamine H3 receptor [4]): 0.501 nM
SMILES: CNC(=O)c1ccc(Oc2ccc3c(c2)CCN(C2CCCC2)CC3)nc1
Activity (Rattus norvegicus [5]): 61%

Ki (Histamine H3 receptor [1]): 7.94 nM | concentration (Blood): 700 nM | Ki (Histamine H3 receptor [4]): 1.26 nM | Kp [8]: 2.8
SMILES: CNC(=O)c1ccc(Oc2ccc3c(c2)CCN(C2CCC2)CC3)nn1
ED50 (Rattus norvegicus [6]): 0.33 mg/kg | Activity (Rattus norvegicus [5]): 79% | ED50 (Rattus norvegicus [7]): 0.85 mg/kg

Ki (Histamine H3 receptor [1]): 1 nM | Ki (Histamine H3 receptor [4]): 0.1 nM
SMILES: CN1CCN(c2ccc(Oc3ccc4c(c3)CCN(C3CCC3)CC4)nc2)C1=O
Activity (Rattus norvegicus [5]): 81% | ED50 (Rattus norvegicus [7]): 1.9 mg/kg

Continued, compound first:

SMILES: O=C1C[C@@H](O)CN1c1ccc(Oc2ccc3c(c2)CCN(C2CCC2)CC3)nc1
Ki (Histamine H3 receptor [1]): 1.58 nM | Activity (Rattus norvegicus [5]): 56% | Ki (Histamine H3 receptor [4]): 0.2 nM

SMILES: c1cnn(-c2ccc(Oc3ccc4c(c3)CCN(C3CCC3)CC4)nc2)c1
Ki (Histamine H3 receptor [1]): 3.16 nM | Activity (Rattus norvegicus [5]): 73% | Ki (Histamine H3 receptor [4]): 0.501 nM

SMILES: O=C1CCCN1c1ccc(Oc2ccc3c(c2)CCN(C2CCCC2)CC3)nc1
Ki (Histamine H3 receptor [1]): 0.794 nM | ED50 (Rattus norvegicus [6]): 0.04 mg/kg | Activity (Rattus norvegicus [5]): 88% | concentration (Blood): 550 nM | ED50 (Rattus norvegicus [7]): 0.1 mg/kg | Ki (Histamine H3 receptor [4]): 0.126 nM | Kp [8]: 1

SMILES: CNC(=O)c1cnc(Oc2ccc3c(c2)CCN(C2CCC2)CC3)cn1
CLH (Liver microsome [9]): 1.2 mL/min/g | Ki (Histamine H3 receptor [10]): 1.12 nM | Ki (Histamine H3 receptor [1]): 0.832 nM | ED50 (Rattus norvegicus [6]): 0.02 mg/kg | Activity (Rattus norvegicus [5]): 82% | Ki (Histamine H4 receptor): > 3160 nM | concentration (Blood): 1120 nM | ED50 (Rattus norvegicus [7]): 0.04 mg/kg | CLH (Liver microsome [3]): 1.4 mL/min/g | Ki (Histamine H2 receptor): > 3160 nM | IC50 [11]: > 10000 nM | inhibition at 10 µM (hERG (KCNH2)): < 10% | Ki (Histamine H1 receptor): 1580 nM

SMILES: O=C1CCCCN1c1ccc(Oc2ccc3c(c2)CCN(C2CCC2)CC3)nc1
Ki (Histamine H3 receptor [1]): 2.51 nM | Activity (Rattus norvegicus [5]): 10% | Ki (Histamine H3 receptor [4]): 0.316 nM

SMILES: CC(=O)c1ccc(Oc2ccc3c(c2)CCN(C2CCC2)CC3)cn1
Ki (Histamine H3 receptor [1]): 0.631 nM | Activity (Rattus norvegicus [2]): 66% | Ki (Histamine H3 receptor [4]): 0.1 nM

SMILES: CCNC(=O)c1ccc(Oc2ccc3c(c2)CCN(C2CCC2)CC3)cn1
Ki (Histamine H3 receptor [1]): 3.98 nM | Activity (Rattus norvegicus [5]): 62% | Ki (Histamine H3 receptor [4]): 0.631 nM

SMILES: O=C1CCCN1c1ccc(Oc2ccc3c(c2)CCN(C2CCC2)CC3)nc1 [GSK239512]
Activity (Rattus norvegicus [12]): Active | bioavailability [13]: 55% | clearance [14]: 28 mL/min/kg | Cmax [15]: 383 nM | clearance [16]: 22 mL/min/kg | CLH (Liver microsome [9]): 0.6 mL/min/g | Ki (Histamine H3 receptor [10]): 0.148 nM | half-life [17]: 1.7 h | Cmax [18]: 120 nM | Vd [19]: 2.8 L/kg | Ki (Histamine H3 receptor [1]): 0.363 nM | ED50 (Rattus norvegicus [6]): 0.04 mg/kg | Vd [20]: 3.2 L/kg | half-life [21]: 2.1 h | Kp [22]: 1.83 | Kp [23]: 1.83 | clearance [24]: 39 mL/min/kg | Tmax [25]: 1.3 h | Activity (Rattus norvegicus [5]): 95% | Ki (Histamine H4 receptor): > 3160 nM | Tmax [26]: 1 h | Cmax [27]: 348 nM | concentration (Blood): 410 nM | Vd [28]: 3.1 L/kg | Activity (Rattus norvegicus [29]): Dose-dependent effect | half-life [30]: 1.7 h | half-life [31]: 1.2 h | ED50 (Rattus norvegicus [7]): 0.08 mg/kg | Activity (Rattus norvegicus [32]): Active | bioavailability [33]: 33% | Tmax [34]: 0.7 h | CLH (Liver microsome [3]): 1.6 mL/min/g | bioavailability [35]: 51% | Ki (Histamine H2 receptor): > 3160 nM | half-life [36]: 1.8 h | Ki (Histamine H3 receptor [4]): 0.1 nM | half-life [37]: 1.7 h | Cmax [38]: 393 nM | EC50 (Rattus norvegicus [39]): 15 nM | Ki (Histamine H3 receptor [40]): 0.204 nM | IC50 [11]: > 10000 nM | inhibition at 10 µM (hERG (KCNH2)): < 10% | Kp [8]: 1 | Ki (Histamine H1 receptor): 2510 nM | solubility [41]: > 10000 µg/mL | Cmax [42]: 145 nM | Cmax [43]: 671 nM | Ki (Histamine H3 receptor [44]): 0.12 nM

SMILES: CNC(=O)c1ccc(Oc2ccc3c(c2)CCN(C2CCC2)CC3)cc1
Ki (Histamine H3 receptor [1]): 5.01 nM | Activity (Rattus norvegicus [5]): 68% | concentration (Blood): 540 nM | Ki (Histamine H3 receptor [4]): 0.501 nM | Kp [8]: 2.5

SMILES: c1cncc(Oc2ccc3c(c2)CCN(C2CCC2)CC3)c1
Ki (Histamine H3 receptor [4]): 2.51 nM
